One test concerns DA1 receptor. The experiment in a line: Goldberg in situ renal arterial preparation (renal DA1 assay), intra-arterial injection. The conditions noted are these: optimal response of test compound divided by optimal response of dopamine. Format: in vivo, dog. The protocol:
(§1) The compounds were subsequently tested following intra-arterial administration in an in situ renal and femoral arterial preparation in the dog, as developed by L.I. Goldberg, to test for DA1 and DA2 dopamine activity, respectively. Details of the methodology are provided in the European J. Pharmacol. 89 :137, 1983, as well as in Hypertension 6 :1-25, 1984.
(§2) The compounds of this invention were tested following intra-arterial administration in an in situ renal and femoral arterial preparation in the dog, as developed by L.I. Goldberg, to test for DA1 and DA2 dopamine activity, respectively. Details of the methodology are provided in the European J. Pharmacol. , 89 :137, 1983, as well as in Hypertension , 6 :1-25, 1984. J. L. McNay, L. I. Goldberg JPET 151 :23-31, 1966.
(§3) The compounds were injected directly into the renal or femoral artery for analysis of DA, or DA2 activity, respectively. […] The compounds were tested for relative activity in comparison to the standard DA, agonist, dopamine or the standard DA2 agonist, DPDA. Specific DA, or DA2 activity of the tested compound was verified by Sch 23390 or domperidone blockade.
(§4) Adult mongrel dogs of either sex (12-20 kg) were anesthetized with pentobarbital sodium (33 mg/kg, i.v.). The animals were intubated and ventilated with room air using a Harvard respirator.
(§5) The compounds of this invention were tested following intra-arterial administration in an in situ renal and femoral arterial preparation in the dog, as developed by L.I. Goldberg, to test for DA1 and DA2 dopamine activity, respectively. Details of the methodology are provided in the European J. Pharmacol. , 89 :137, 1983, as well as in Hypertension , 6 :1-25, 1984. J. L. McNay, L. I. Goldberg JPET 151 :23-31, 1966
(§6) The compounds were injected directly into the renal or femoral artery for analysis of DA1 or DA2 activity, respectively. […] The compounds were tested for relative activity in comparison to the standard DA1 agonist, dopamine or the standard DA2 agonist, DPDA. Specific DA, or DA2 activity of the tested compound was verified by Sch 23390 or domperidone blockade.
The abdominal aorta was catheterized with a Millar micro-tip (size: 5F) transducer via the right femoral artery for blood pressure monitoring. The right femoral vein was cannulated with PE-160 tubing for iv saline infusion, as well as supplemental pentobarbital administration. The left renal artery was isolated through a lateral abdominal incision. An electromagnetic flowprobe of the appropriate size (8-11 mm circ.) was placed around the artery and connected to a Carolina Medical electromagnetic flowmeter. Surface ECG leads were placed subcutaneously on the chest and limbs to monitor heart rate. A 25 gauge 3/4" needle bent 90°, 4 mm from the tip, was placed in the renal artery proximal to the probe and connected to an infusion pump delivering saline at a constant rate of 1 ml/min. Following a saline and 1µg norepinephrine (NE) challenge, both given in an injection volume of 0.2 ml, the animal was treated with a phenoxybenzamine, 0.5 mg/kg/min i.a., infusion for a duration of 10-20 minutes as necessary to achieve a complete blockade of the NE challenge. Blood pressure was maintained by supplemental saline infusion (10-20 ml/kg, iv). Bradykinin, a standard for nonspecific vasodilation, was given at 0.60 nmole doses, in 0.2 ml saline, i.a., prior to generating a dose response curve for dopamine in which 4-fold increasing doses, ranging from 3 to 48 nmoles, were injected i.a. in 0.2 ml of saline (i.a. bolus). Test compounds were injected similarly in 4-fold increasing doses up to a maximum of 3000 nmoles. Compounds were then repeated at their optimal dose following Sch 23390 pretreatment (0.05 - 0.10 mg/kg, iv).
Efficacy ratios were determined by division of the optimal response of the test compound by the optimal response of the standard agent.

For a further test, the system named is DA2 receptor. The experiment in a line: Goldberg in situ femoral arterial preparation (DA2 assay), intra-arterial injection. The conditions noted are these: optimal response of test compound divided by optimal response of DPDA. Format: in vivo, dog. The protocol:
as §1, §2, §3, §4, §5, §6
The thoracic aorta was catheterized with a Millar micro-tip (size 5F) transducer via the right carotid artery for blood pressure monitoring. The right external jugular vein was cannulated with PE-160 tubing for supplemental pentobarbital administration. The left femoral artery was isolated and an electromagnetic flowprobe of the appropriate size (8-11 mm circ.) was placed around the artery and connected to a Caroline Medical electromagnetic flowmeter. Surface ECG leads were placed subcutaneously on the chest and limbs to monitor heart rate. A 25 gauge 3/4" needle bent 90` , 4 mm from the tip, was placed in the femoral artery proximal to the probe and connected to an infusion pump delivering saline at a constant rate of 1 ml/min. Following a saline and bradykinin challenge (0.02 to 0.04 nmoles, in 0.2 ml saline, i.a.), a dose response curve for DPDA was generated by injecting 4-fold increasing doses i.a. ranging from 3 to 48 nmoles in 0.2 ml saline. Test compounds were injected similarly in 4-fold increasing doses up to 3000 nmoles. Compounds were then repeated at their optimal dose following domperidone pretreatment (10-40 Ilg/kg, iv).
Efficacy ratios were determined by division of the optimal response of the test compound by the optimal response of the standard agent. The optimal dose of compound was defined as that which produced a maximum increase in blood flow before causing a change in systemic blood pressure. ED50 values were derived by regression analysis from individually generated dose response curves. Potency ratios were the quotients calculated from the division of the standard agent EDso by the ED50 of the test compound. […] If the inhibition of the test compound was similar to that of dopamine or DPDA, the compound was considered to be a DA, or DA2 agonist, respectively.

Regarding `Cl.NCCc1ccc(O)c(O)c1` [Dopamine, 4-(2-aminoethyl)-1,2-Benzenediol hydrochloride], the “Relative Efficacy to DA1 Standard” value with DA1 receptor was 1.00.
For the molecule `CCCN(CCC)CCc1ccc(O)c(O)c1` [DPDA, di-propyl dopamine, reference compound], the “Relative Efficacy to DA2 Standard” value in the test with DA2 receptor is on record as 1.00.
